Data on six compounds can be found in patent publication US4866055A, “Cephalosporin derivatives and their crystalline derivatives” (Mochida Pharmaceutical Co., Ltd., priority 1986, dated 1989).

Data set [1] in a line: Solubility. The class given is physicochemical. The following applies: trisodium salt, amorphous solid; for parenteral use.
Data set [2] can be described thus: Stability (storage). The class given is physicochemical.
Data set [3] can be described thus: Acute toxicity, LD50 by the Probit method. The following applies: in vivo, iv. As for the experimental part:
Next, LD50 of representative examples of the compounds of the present invention is shown in Table 3 herein LD50 was determined in accordance with the Probit method.

Data set [4] concerns Klebsiella pneumoniae IFO 3317. The data set is described as follows: Protection against systemic infection in mice. The data set is classed as in vivo, ICR mice. The conditions noted are these: for ED50: IFO3317, iv, 168 h. As for the experimental part: (§1) Protection ability against systemic infection was determined as follows. An aqueous suspension of test bacteria was intraperitoneally injected into 10 four week old ICR mice. One hour after the infection, test compounds were intravenously administered. The number of surviving mice was counted 1 week after injection to determine the dose at which 50% of the test animals were alive (ED50 : mg/kg).

In data set [5] the test system is Serratia marcescens 274. Nature of the data set: Protection against systemic infection in mice. The data set is classed as in vivo, ICR mice. The following applies: 168 h. As for the experimental part:
as §1

The subject of data set [6] is Proteus mirabilis IFO 3849. Nature of the data set: Protection against systemic infection in mice. The data set is classed as in vivo, ICR mice. The conditions noted are these: IFO3849, iv, 168 h. As for the experimental part:
as §1

The subject of data set [7] is Escherichia coli 67. The data set is described as follows: Protection against systemic infection in mice. The class given is in vivo, ICR mice. The conditions noted are these: iv, 168 h, i.p. infection, i.v. compound 1 hour after infection, survival at 1 week. As for the experimental part: as §1
Data set [8] has as its system Staphylococcus aureus 242. Nature of the data set: Protection against systemic infection in mice. The data set is classed as in vivo, ICR mice. The conditions noted are these: 168 h. As for the experimental part:
as §1

In data set [9] the test system is Pseudomonas aeruginosa 13. Nature of the data set: Protection against systemic infection in mice. The class given is in vivo, ICR mice. The following applies: for ED50: 168 h. As for the experimental part:
as §1

Data set [10] has as its system Klebsiella pneumoniae IFO 3317. The data set is described as follows: Antibacterial activity in vitro, agar plate dilution method (MIC). The class given is cell-based. As for the experimental part:
(§2) Antibacterial activity in vitro was determined in accordance with the agar plate dilution method.
(§3) A platinum loop each of test bacteria (10^6 cells/ml), cultured in Mueller Hinton broth, was inoculated on Mueller Hinton agar plates which contained test compounds at various concentrations. After cultivating at 37° C. for 20 hours, the minimum inhibitory concentration (MIC μg/ml) was determined.

The subject of data set [11] is Proteus morganii IFO 3848. The description is as above. The data set is classed as cell-based. The conditions noted are these: Morganella morganii. As for the experimental part: as §2, §3
For data set [12], the system named is Escherichia coli NIHJ JC 2. Described as above. The class given is cell-based. The conditions noted are these: NIHJJC2, 37° C., 20 hours, Mueller Hinton agar. As for the experimental part:
as §2, §3

Data set [13] deals with Serratia marcescens IFO 3759. The data set is described as above. The class given is cell-based. As for the experimental part: as §2, §3
For data set [14], the system named is Pseudomonas aeruginosa 13. Described as above. The class given is cell-based. As for the experimental part:
as §2, §3

Data set [15] has as its system Staphylococcus aureus Smith. The description is as above. The conditions noted are these: 37° C., 20 hours, Mueller Hinton agar. The class given is cell-based. As for the experimental part:
as §2, §3

Data set [16] concerns experimental infection. The data set is described as follows: Protection of animals from experimental infection (overall). The class given is in vivo, ICR mice. The conditions noted are these: Tables 2-a through 2-b, vs reference compound. As for the experimental part:
as §1

For data set [17], the system named is bacterial strains except Pseudomonas aeruginosa. Nature of the data set: Antibacterial activity in vitro, agar plate dilution method, all strains except Pseudomonas aeruginosa. The data set is classed as cell-based. The following applies: Tables 1-a through 1-b. As for the experimental part:
as §2, §3

Setting [18] is: Klebsiella pneumoniae IFO 3317, i.p. infection, i.v. compound 1 hour after infection, survival at 1 week, read-out: ED50.
The mark [19] stands for this setting: iv, Serratia marcescens 274, i.p. infection, i.v. compound 1 hour after infection, survival at 1 week, read-out: ED50.
Where [20] appears, read: Proteus mirabilis IFO 3849, i.p. infection, i.v. compound 1 hour after infection, survival at 1 week, read-out: ED50.
The mark [21] stands for this setting: iv, Staphylococcus aureus 242, i.p. infection, i.v. compound 1 hour after infection, survival at 1 week, read-out: ED50.
Setting [22] is: iv, Pseudomonas aeruginosa 13, i.p. infection, i.v. compound 1 hour after infection, survival at 1 week, read-out: ED50.
[23] abbreviates: IFO3317, Klebsiella pneumoniae IFO 3317, 37° C., 20 hours, Mueller Hinton agar, read-out: MIC.
The mark [24] stands for this setting: IFO3848, Proteus morganii IFO 3848, 37° C., 20 hours, Mueller Hinton agar, read-out: MIC.
Setting [25] is: IFO3759, Serratia marcescens IFO 3759, 37° C., 20 hours, Mueller Hinton agar, read-out: MIC.
The mark [26] stands for this setting: Pseudomonas aeruginosa 13, 37° C., 20 hours, Mueller Hinton agar, read-out: MIC.

Values after ≈ are worked out from the molar mass of the structure shown. Where two headings read alike, the source gives them in different places.

For `Cc1cc(SCC2=C(C(=O)[O-])N3C(=O)[C@@H](NC(=O)/C(=N\OCc4cc(O)c(O)cc4C(=O)[O-])c4csc(N)n4)[C@H]3SC2)n2nc(C(=O)[O-])nc2n1.[Na+].[Na+].[Na+]`, the solubility entry in data set [1] is listed as “excellent solubility”. The stability entry in [2] (as bulk materials or as parenteral preparations) is given as “not necessarily sufficient”.
Broadly, the LD50 is the dose at which mortality reaches 50%. Broadly, the ED50 is the midpoint of the dose-response relation. In general, MIC refers to the smallest concentration in the dilution series that meets the test's criterion for growth inhibition. Consider `CC(C)(O/N=C(\C(=O)N[C@@H]1C(=O)N2C(C(=O)[O-])=C(C[n+]3ccccc3)CS[C@H]12)c1csc(N)n1)C(=O)O` [CAZ, Ceftazidime], for which the LD50 in data set [3] was greater than 4000 mg/kg. Moreover, the ED50 is 10.6 mg/kg in data set [4] (Klebsiella pneumoniae); 3.62 mg/kg in data set [5] (Serratia marcescens, 274, iv); 4.36 mg/kg in data set [6] (Proteus mirabilis); 6.48 mg/kg in data set [7]; greater than 100 mg/kg in data set [8] (Staphylococcus aureus, 242, iv); 145 mg/kg in data set [9] (Pseudomonas aeruginosa, 13, iv). The MIC was no more than 0.05 µg/mL in data set [10] (Klebsiella pneumoniae, IFO3317, 20 h); 0.2 µg/mL (≈ 0.366 µM) in [11] (IFO3848, 20 h); 0.2 µg/mL (≈ 0.366 µM) in data set [12]; no more than 0.05 µg/mL in data set [13] (Serratia marcescens, IFO3759, 20 h); 1.56 µg/mL (≈ 2.85 µM) in data set [14] (Pseudomonas aeruginosa, 13, 20 h).
As for `CC(=O)Oc1cc(C(=O)O)c(CO/N=C(\C(=O)N[C@@H]2C(=O)N3C(C(=O)O)=C(CSc4cc(C)nc5nc(C(=O)O)nn45)CS[C@H]23)c2csc(N)n2)cc1O` [Reference compound, (6R,7R)-7-[2-(2-amino-4-thiazolyl)-2-[Z-[(4-acetoxy-2-carboxy-5-hydroxyphenyl)methy]oxyimino]acetamido]-3-[(2-caboxy-5-methyl-s-triazolo[1,5-a]pyrimidin-7-yl)thiomethyl]-8-oxo-5-thia-1-azabicyclo[4.2.0]oct-2-ene-2-carboxylicacid], the ED50 was 3.58 mg/kg in data set [4] (setting [18]); 2.56 mg/kg in [5] (setting [19]); 20.1 mg/kg in [6] (setting [20]); 7.66 mg/kg in data set [7]; 12.4 mg/kg in [8] (setting [21]); greater than 500 mg/kg in data set [9] (setting [22]). The MIC in data set [10] (setting [23]) was no more than 0.05 µg/mL; in [11] (setting [24]), 0.2 µg/mL (≈ 0.25 µM); in [12] it was 0.39 µg/mL (≈ 0.488 µM); in data set [13] (setting [25]), no more than 0.05 µg/mL; in data set [15], 1.56 µg/mL (≈ 1.95 µM); in data set [14] (setting [26]), 1.56 µg/mL (≈ 1.95 µM).
Turning to `Cn1nnnc1SCC1=C(C(=O)O)N2C(=O)[C@@H](NC(=O)[C@H](O)c3ccccc3)[C@H]2SC1` [CMD, Cefamandole], the ED50 in data set [8] (setting [21]) was determined as 8.94 mg/kg.
As for `Cc1cc(SCC2=C(C(=O)O)N3C(=O)[C@@H](NC(=O)/C(=N\OCc4cc(O)c(O)cc4C(=O)O)c4csc(N)n4)[C@H]3SC2)n2nc(C(=O)O)nc2n1` [crystalline hydrated compound, crystalline hydrated (6R,7R)-7-[2-(2-amino-4-thiazol-yl)-2-[Z-[(2-carboxy-4,5-dihydroxyphenyl)methyl]oxyimino]acetamido]-3-[(2-carboxy-5-methyl-s-triazolo[1,5-a]pyrimidin-7-yl)thiomethyl]-8-oxo-5-thia-1-azabicyclo[4.2.0]oct-2-ene-2-carboxylic acid], the stability on storage result in data set [2] (crystalline hydrate) is on record as “increased stability on storage”.
Regarding `Cc1cc(SCC2=C(C(=O)O)N3C(=O)[C@@H](NC(=O)/C(=N\OCc4cc(O)c(O)cc4C(=O)O)c4csc(N)n4)[C@H]3SC2)n2nc(C(=O)O)nc2n1` [Compound 1, (6R,7R)-7-[2-(2-amino-4-thiazolyl)-2-[Z-[(2-carboxy-4,5-dihydroxyphenyl)methyl]oxyimino]acetamido]-3-[(2-carboxy-5-methyl-s-triazolo[1,5-a]pyrimidin-7-yl)thiomethyl]-8-oxo-5-thia-1-azabicyclo[4.2.0]-oct-2-ene-2-carboxylic acid], in [3], the LD50 is greater than 4000 mg/kg. The ED50 in data set [4] (setting [18]) came to 0.27 mg/kg; in [5] (setting [19]) it was 0.77 mg/kg; in [6] (setting [20]) it was 5.07 mg/kg; in [7], 1.05 mg/kg; in data set [8] (setting [21]), 7.68 mg/kg; in data set [9] (setting [22]), 61.8 mg/kg. Further, the “times as potent as the reference compound” value in [4] (infection with Klebsiella pneumoniae, vs reference compound) is reported as “more than 10 times”; in data set [9] (infection with Pseudomonas aeruginosa, vs reference compound), “more than 10 times”; in [14] (MIC, Pseudomonas aeruginosa, vs reference compound) it was “more than 10 times”. Moreover, the “potency in protecting the animals from experimental infection relative to the reference compound” value in data set [16] was “evidently more potent than the reference compound”. In addition, the “potency relative to the reference compound in vitro” value in [17] is recorded as “about equipotent to the reference compound”. Besides, the MIC is no more than 0.05 µg/mL in [10] (setting [23]); 0.39 µg/mL (≈ 0.515 µM) in data set [11] (setting [24]); 0.39 µg/mL (≈ 0.515 µM) in data set [12]; 0.1 µg/mL (≈ 0.132 µM) in data set [13] (setting [25]); 1.56 µg/mL (≈ 2.06 µM) in data set [15]; 0.1 µg/mL (≈ 0.132 µM) in [14] (setting [26]). In addition, in data set [14] (MIC, Pseudomonas aeruginosa, vs Ceftazidime), the “times as potent as Ceftazidime” value is listed as “more than 10 times”.
